In PubChem BioAssay (NCI):
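Tested at 5 concentrations; 48 h exposure; 96-well plates; endpoints linearly interpolated, else capped at highest concentration. GI50 is the concentration that inhibits growth by half. TGI: total growth inhibition.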

Columns and labels:
Assay in all cases: DTP human tumour cell line panel, 48 h
ACHN renal = tested on: ACHN renal
CAKI-1 renal = tested on: CAKI-1 renal
HT29 colon = tested on: HT29 colon
OVCAR-4 ovarian = tested on: OVCAR-4 ovarian
SK-OV-3 ovarian = tested on: SK-OV-3 ovarian
SN12C renal = tested on: SN12C renal
SR leukemia = tested on: SR leukemia
TK-10 renal = tested on: TK-10 renal
MDA-MB-231 breast = tested on: MDA-MB-231 breast
MDA-MB-435 = tested on: MDA-MB-435

SMILES	TGI (ACHN renal) [µM]	TGI (CAKI-1 renal) [µM]	TGI (HT29 colon) [µM]	TGI (OVCAR-4 ovarian) [µM]	TGI (SK-OV-3 ovarian) [µM]	TGI (SN12C renal) [µM]	TGI (SR leukemia) [µM]	TGI (TK-10 renal) [µM]	GI50 (ACHN renal) [µM]	GI50 (HT29 colon) [µM]	GI50 (MDA-MB-231 breast) [µM]	TGI (MDA-MB-231 breast) [µM]	GI50 (MDA-MB-435) [µM]	TGI (MDA-MB-435) [µM]	GI50 (OVCAR-4 ovarian) [µM]	GI50 (SK-OV-3 ovarian) [µM]	GI50 (SR leukemia) [µM]	GI50 (TK-10 renal) [µM]	GI50 (CAKI-1 renal) [µM]	GI50 (SN12C renal) [µM]
NS(=O)(=O)c1ccc(NC(=O)c2cccc3c(=O)c4ccccc4[nH]c23)cc1	> 100	> 100	> 100	> 100	65.6	> 100	> 100	> 100												
C=C(COC(C)=O)CC(/C=C(\C)CCC=C(C)C)OC(C)=O (centres undefined)	> 100		> 100	> 100	> 100	> 100		> 100												
CC(=O)OCCOCBr	> 100	> 100	> 100	> 100	> 100	> 100		> 100												
CNC(=O)c1cn(C[C@H](F)CCc2ccc(NC(=O)Cc3cc(OC4CC(F)(F)C4)cc(C)n3)nn2)nn1	> 100		> 100	> 100	> 100	> 100	> 100	> 100	> 100	> 100	> 100	> 100	> 100	> 100	> 100	> 100	> 81.8	> 100		
COc1ccc(C2C(N)=NCC2c2ccccn2)cc1 (centres undefined)	> 100	> 100	> 100	> 100	> 100	> 100	> 100	> 100												
c1ccc2c(c1)N=C(c1cccc3ccccc13)CC(c1cccc3ccccc13)S2 (centres undefined)	23.5	13.2	10.1	12.4	29.8	15.9	4.89	25.8												
CC/C=C\C/C=C\C1CC(=O)NCCCNCCCCN1 (centres undefined)		> 100	> 100	> 100		> 100	> 100	> 100												
O=C1N[C@@H](O)[C@@H]2ON=C(c3ccccc3)[C@H]12	> 100	> 100	> 100	> 100	> 100	> 100	> 100	> 100												
C=C1C(=O)O[C@H]2[C@H]1CC/C(COC(=O)c1cc3cc(OC)ccc3[nH]1)=C\CC[C@@]1(C)O[C@@H]21	2.12	3.48	1.47	3.24	17.1	3.52		2.54	0.817	0.351	1.58	3.2	0.621	2.03	1.63	4.9		1.28	1.71	1.77
COc1cc(/C=C/C(=N\NC(=O)c2ccccc2)c2sc(Nc3ccc(Cl)c(Cl)c3)nc2C)ccc1O	87.2	> 100	> 100	> 100	> 100	> 100	62.3	> 100												
O=c1c2ccccc2c2c3c1cccc3c1cccc3c(=O)c4ccccc4c2c31	> 100	> 100	> 100	> 100	> 100	> 100	> 100	> 100												
Clc1ccc(CNc2nc3ccccc3nc2-c2cccs2)c(Cl)c1	> 100		> 100			> 100	> 100	> 100												
CC(=O)c1c(C)n([O-])c2cc(C)c(C)cc2[n+]1=O	> 100	> 100	> 100	> 100	> 100	> 100		> 100												
O=C1c2ccccc2-c2cccc3ccc(Cc4ccccc4)c1c23	> 100		> 100	> 100		> 100		> 100												
COC(=O)c1c(O)ccc2[nH]c(C)c(C#N)c12	> 100	90.1	> 100	> 100	> 100	> 100		49.2	20.6	60.3	39.9	> 100	32.9	> 100	> 100	97.5		8.8	30.4	49
NC1=NC(=O)C(CC(=O)Nc2ccc([N+](=O)[O-])cc2[N+](=O)[O-])S1 (centres undefined)	> 100		> 100	> 100		> 100		> 100												
COC(=O)NC/C=C\c1nc(CC/C=C\C(=O)OC2CC3CC(=O)O[C@@H](/C=C/CC(C)C)C[C@@H]4CCC(C)C(C[C@@H](OC)CC(C2)O3)O4)co1 (some centres undefined)	> 100	70.6	> 100		> 100				< 0.01	7.63	4.43	47.6	< 0.01	50.1		> 100			< 0.01	
CN(C)C(=S)/N=c1\ss/c(=N\S(=O)(=O)c2ccccc2)n1-c1ccccc1	> 100	> 100	> 100	> 100	> 100	> 100		> 100												
c1cc[c]([Sn]([S]c2cccc3cccnc23)([c]2ccccc2)[c]2ccccc2)cc1	0.116	0.0421	0.0908	0.0644	0.356	0.161		0.181	0.0335	0.0223					0.0171	0.107		0.0446	0.0114	0.0326
COc1ccc(/C=C/C(=O)c2sc(-n3nc(-c4ccccc4)cc3-c3ccccc3)nc2C)cc1OC	> 100	> 100	> 100	> 100	> 100	> 100	78.2	> 100												
COc1ccc(C(=O)C(C(=O)CCC(=O)Nc2cccc(C(F)(F)F)c2)c2ccccc2)cc1 (centres undefined)	> 100	> 100	> 100	> 100	> 100	> 100	> 100	> 100												

SMILES	TGI (ACHN renal) [µM]	TGI (CAKI-1 renal) [µM]	TGI (HT29 colon) [µM]	TGI (OVCAR-4 ovarian) [µM]	TGI (SK-OV-3 ovarian) [µM]	TGI (SN12C renal) [µM]	TGI (SR leukemia) [µM]	TGI (TK-10 renal) [µM]	GI50 (ACHN renal) [µM]	GI50 (HT29 colon) [µM]	GI50 (MDA-MB-231 breast) [µM]	TGI (MDA-MB-231 breast) [µM]	GI50 (MDA-MB-435) [µM]	TGI (MDA-MB-435) [µM]	GI50 (OVCAR-4 ovarian) [µM]	GI50 (SK-OV-3 ovarian) [µM]	GI50 (SR leukemia) [µM]	GI50 (TK-10 renal) [µM]	GI50 (CAKI-1 renal) [µM]	GI50 (SN12C renal) [µM]
CC1CCCC(C(=O)/C(=C/c2cccc(Cl)c2)C(=O)C(=O)O)C1 (centres undefined)	> 100	> 100	38.1	> 100	> 100	> 100		> 100												
Clc1cc(Cl)c2c(Cl)cc(Cl)c3c2c1N=S=N3		> 100	> 100	> 100	> 100			> 100												
COc1ccc(C2=NC(C)(C)CO2)cc1	> 100	> 100	> 100	> 100		> 100	> 100	> 100												
COc1ccc2c(c1)C=CC(C#N)N2C(=O)c1ccccc1 (centres undefined)	> 100	> 100	> 42.1	> 100	> 100	> 100	> 100	> 100	0.0411	< 0.01	< 0.01	3.14			0.0283	< 0.01	< 0.01	33.7	< 0.01	< 0.0119
CCCS(=O)(=O)c1nc(NC2CC2)cc(-c2ccc3c(ccn3C3CC(C)(C)NC(C)(C)C3)c2)n1	3.35	3.05	3.38		3.46	3.8	0.784	2.98	1.77	1.81			1.47	2.95		1.86	0.256	1.52	1.56	1.88
COc1ccc(-c2cc(-c3cc(Cl)ccc3Cl)nc3nc(=S)[nH]c(N)c23)cc1	98.4	62.1	> 100	> 100	> 100	65.7		38.5	27.1	37.8	3.62	19.8	3.93	17.6	> 100	47.2		7.35	10.6	19.1
Oc1c2c(c(O)c3ccccc13)=N[C@@H](c1ccccc1)[C@H](c1ccccc1)N=2	> 100	> 100	> 100	> 100	> 100	> 100	> 100	> 100												
O=C(N/N=C/c1ccc(Cl)cc1Cl)c1ccccc1Nc1cccc(C(F)(F)F)c1	16.5	14.4	> 100	12.4	39.2	48.2		9.22	3.77	14.4	4.79	32.2	22.3	> 100	2.94	12.5		2.84	3.45	7.66
C=C1CC(COc2cc(Cl)nc(N)n2)C1	74.1	89.3							14.5	37	30.1				67.8	69.7	34.8		22.8	44.1
CN(C)c1nc(-c2cccs2)n2nc(-c3ccc(Cl)cc3)cc2n1	> 100					> 100	> 100		3.97		3.7	> 100					> 100			> 100
CC(C)(C)C1(O)Cc2ccccc2C(=O)O1 (centres undefined)	> 100	> 100	> 100	> 100	> 100	> 100	> 100	> 100												
O=C(Nc1ccc(S(=O)(=O)N[C@@H](C(=O)O)c2ccccc2)cc1)c1ccc(F)cc1	> 100	> 100	> 100	> 100	> 100	> 100		> 100												
CC1=Nc2c(ccc3c2C(=O)c2ccccc2C3=O)NC(c2ccncc2)C1 (centres undefined)	> 100	> 100	> 100	> 100	> 100	> 100		> 100	23.5	> 100					> 100		> 100		3.77	
O=C1c2ccccc2-c2c1c1ccccc1c(=O)n2CCNCCCNCCn1c2c(c3ccccc3c1=O)C(=O)c1ccccc1-2	0.699	1.24			4.83	0.436			0.00672	0.051	0.161	0.548	0.115	1.1		1.21			0.563	0.011
CN1CCN(C)C1c1cccc(C2N(C)CCN2C)c1	> 100		> 100	> 100	> 100	> 100														
COc1cc(/C=C\c2ccc(O)cc2)cc(OC)c1OC	> 100	> 100	> 100	> 100	61.6	> 53.6		> 100												
CCOC(=O)[C@@H](C)C[C@H](Cc1ccccc1)NC(=O)c1csc([C@@H](C[C@H](C(C)C)N(C)C(=O)[C@@H](NC(=O)[C@H]2CCCCN2C)C(C)(C)C)OC(C)=O)n1	> 16.7	> 16.7	> 7.52	> 16.7	> 16.7	> 16.7	> 16.7	> 16.7	< 0.00167	< 0.00167	< 0.00167	0.647			0.00328	< 0.00167	< 0.00167	0.117	< 0.00167	0.00307
C=C(C)[C@@H]1CC[C@@]2(C(=O)O)CC[C@]3(C)C(CCC4[C@@]5(C)CCC(OS(=O)(=O)c6ccccc6)C(C)(C)C5CC[C@]43C)C12 (some centres undefined)	20.6	9.89	18	28.5	44.4	30.6		25.4	4.42	5.52	8.58	25.6	4.49	20.1	4.49	14		3.84	2.36	4.88
CCOc1cccc2nc3cccc(C(=O)NCCN(C)C)c3nc12	3.01		7.14	8.58	> 35.4	3.59	26.1	7.9												
CC1(C)CCc2cc3c(cc2O1)OCCC3=O	> 100	> 100	> 100	> 100	> 100	> 100	> 100	> 100												
